# Measurements from PubChem BioAssay (NCI).
# “And” between values parts separate entries of the source, which are not always exact repeats. Equal entries are not always repeated.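 Following 48 hours of exposure in 96-well plates, responses at five concentrations were used to interpolate endpoints linearly. GI50: concentration for 50% inhibition of growth. TGI: concentration producing complete growth inhibition.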
# Legend:
# Test in all cases: growth of human tumour cells (NCI), 48 h
# 786-0 renal = system: 786-0 renal
# ACHN renal = system: ACHN renal
# HL-60(TB) leukemia = system: HL-60(TB) leukemia
# HOP-62 NSCLC = system: HOP-62 NSCLC
# IGROV1 ovarian = system: IGROV1 ovarian
# MALME-3M melanoma = system: MALME-3M melanoma
# NCI-H226 lung = system: NCI-H226 lung
# NCI-H23 lung = system: NCI-H23 lung
# SF-539 CNS = system: SF-539 CNS
# UO-31 renal = system: UO-31 renal
Compound,TGI (786-0 renal) [µM],TGI (ACHN renal) [µM],TGI (HL-60(TB) leukemia) [µM],TGI (HOP-62 NSCLC) [µM],TGI (IGROV1 ovarian),TGI (MALME-3M melanoma) [µM],TGI (NCI-H226 lung),TGI (NCI-H23 lung),TGI (SF-539 CNS),TGI (UO-31 renal) [µM],GI50 (786-0 renal) [µM],GI50 (ACHN renal),GI50 (HL-60(TB) leukemia) [µM],GI50 (HOP-62 NSCLC),GI50 (IGROV1 ovarian) [µM],GI50 (MALME-3M melanoma) [µM],GI50 (NCI-H23 lung),GI50 (SF-539 CNS),GI50 (UO-31 renal) [µM],GI50 (NCI-H226 lung)
C=CCN=C1NC(=O)C(CC(=O)Nc2cccc(Cl)c2)S1 (stereo not drawn),> 100,> 100,> 100,> 100,> 100 µM,> 100,> 100 µM,> 100 µM,> 100 µM,> 100,–,–,–,–,–,–,–,–,–,–
Cc1cccc2c(=O)c3c(sc12)c(NCCCN)nc1ccccc13,3.28,2.71,3.34,2.79,2.63 µM,3.09,–,3.5 µM,3.09 µM,2.29,1.69,1.39 µM,1.71,1.24 µM,1.18,1.61,1.76 µM,1.69 µM,1.06,–
CCC(CO)Nc1nc(NCc2ccccc2)c2n[nH]c(C(C)C)c2n1 (stereo not drawn),21.5,16.9,21,31.8,25.6 µM,27.4,60.8 µM,31.2 µM,26.1 µM,21.9,6.68,4.42 µM,4.87,13.9 µM,3.44,13,12.3 µM,12.7 µM,7.43,23.8 µM
C=C(C)[C@@H]1C/C=C(/COC(C)=O)CC[C@H]2O[C@@]2(C)CC/C=C(\C)CC1,> 100,> 100,–,> 100,> 100 µM,> 100,> 100 µM,> 100 µM,–,> 100,67.9,> 100 µM,–,> 100 µM,> 100,> 100,> 100 µM,–,30.4,> 100 µM
CC1CCCc2c1n[nH]c2CC1CC(=O)NC(=O)C1 (stereo not drawn),> 100,> 100,> 100,> 100,> 100 µM,> 100,> 100 µM,> 100 µM,> 100 µM,> 100,–,–,–,–,–,–,–,–,–,–
CSc1ccc(Cc2cc(C(C)(C)C)cc(C(C)(C)C)c2O)cc1,30.4,29,25.1,35,26.7 µM,28.7,–,28.7 µM,31.8 µM,30.7,–,–,–,–,–,–,–,–,–,–
C=CCC1(CN(C)C)CC/C(=C\c2cc(OC)c(OC)c(OC)c2)C1=O (stereo not drawn),39.3,70.8,20.6,> 100,74.6 µM,> 100,> 100 µM,> 100 µM,35 µM,77,–,–,–,–,–,–,–,–,–,–
CC1=NC(C)=C(/C(C)=N/NC(=O)c2ccccc2O)C(C)/C1=C(/C)NNC(=O)c1ccccc1O (stereo not drawn),44.3,86.4,22.4,> 100,33 µM,80.8,–,26.9 µM,76.2 µM,43.1,–,–,–,–,–,–,–,–,–,–
C/C(COc1ccc2oc(-c3ccccc3)cc(=O)c2c1)=N\O,> 100,> 100,> 100,> 100,> 100 µM,–,> 100 µM,> 100 µM,5.8 µM,> 100,9.05,> 100 µM,74.5,69.4 µM,43.8,–,88.5 µM,2.1 µM,11.2,> 100 µM
Oc1cccc2cccnc12,> 100,> 100,–,> 100,28.9 µM and 24.4 µM and > 100 µM,> 100,37.4 µM and > 100 µM and > 84 µM,18.9 µM and > 100 µM,54.1 µM and 81.1 µM and > 100 µM,> 100,–,5.98 µM and 23.1 µM and 6 µM,–,4.47 µM and 5.39 µM and 13.5 µM,–,–,2.49 µM and 13.4 µM and 3.93 µM,4.56 µM and 26.9 µM and 4.11 µM,–,8.82 µM and 44.4 µM and 28.6 µM
C/C(=N\NC(=O)c1ccccc1O)c1c(O)cc(C)oc1=O,> 100,> 100,> 100,> 100,> 100 µM,> 100,> 100 µM,> 100 µM,> 100 µM,> 100,–,–,–,–,–,–,–,–,–,–
NC(=O)c1ccc(I)c([N+](=O)[O-])c1,> 100,> 100,> 95.7,> 100,> 100 µM,> 72.9,> 100 µM,> 100 µM,> 100 µM,> 100,> 100,> 69.3 µM,29.9,> 100 µM,> 100,41,76.1 µM,> 100 µM,> 100,> 100 µM
COc1ccc(C2=NN(C(C)=O)c3nc4ccccc4nc3O2)cc1,48.7,> 100,> 100,64,27.4 µM,> 100,–,> 100 µM,43.1 µM,90.4,–,–,–,–,–,–,–,–,–,–
Oc1ccc(Br)cc1C=NC1CCCCC1,> 100,> 100,44.5,> 100,> 100 µM,> 100,–,> 100 µM,> 100 µM,> 100,–,–,–,–,–,–,–,–,–,–
COc1cc(OCCCN2CCCC2)ccc1Nc1ncc(Cl)c(Nc2ccccc2P(C)(C)=O)n1,11.6,16.7,6.19,12.5,22.5 µM,22.6,6.45 µM,13.2 µM,12.8 µM,6.31,2.7,2.46 µM,1.36,2.11 µM,1.41,6.06,1.98 µM,3.49 µM,2.28,1.59 µM
CC(=O)CCc1ccc(Oc2c3ccccc3nc3occc23)cc1,45.2,49.6,74.5,35.4,> 100 µM,–,34.3 µM,39.3 µM,–,> 100,18.5,19.1 µM,8.67,20.1 µM,33.9,–,13 µM,–,22.9,15.5 µM
